Columns and labels:
A498 = assay: Cytotoxicity against human A498 cells assessed as cell growth at 10^-5 M after 48 hrs by SRB assay; assay type: functional; conditions: A498, 48 h, read-out: Activity
[1] = Cytotoxicity against human SW620 cells assessed as cell growth at 10^-5 M after 48 hrs by SRB assay; assay type: functional; conditions: SW-620, 48 h, read-out: Activity
Malme-3M = assay: Cytotoxicity against human MALME-3M cells after 48 hrs by SRB assay; assay type: functional
Albumin [2] = biological target: T1, Albumin (Homo sapiens, UniProt P02768); assay: Binding affinity to human serum albumin at 0.25 uM at 303 K by fluorescence microscopic analysis in the presence of K+; assay type: ADME; conditions: isolated protein
T1 sequence (P02768 whole entry): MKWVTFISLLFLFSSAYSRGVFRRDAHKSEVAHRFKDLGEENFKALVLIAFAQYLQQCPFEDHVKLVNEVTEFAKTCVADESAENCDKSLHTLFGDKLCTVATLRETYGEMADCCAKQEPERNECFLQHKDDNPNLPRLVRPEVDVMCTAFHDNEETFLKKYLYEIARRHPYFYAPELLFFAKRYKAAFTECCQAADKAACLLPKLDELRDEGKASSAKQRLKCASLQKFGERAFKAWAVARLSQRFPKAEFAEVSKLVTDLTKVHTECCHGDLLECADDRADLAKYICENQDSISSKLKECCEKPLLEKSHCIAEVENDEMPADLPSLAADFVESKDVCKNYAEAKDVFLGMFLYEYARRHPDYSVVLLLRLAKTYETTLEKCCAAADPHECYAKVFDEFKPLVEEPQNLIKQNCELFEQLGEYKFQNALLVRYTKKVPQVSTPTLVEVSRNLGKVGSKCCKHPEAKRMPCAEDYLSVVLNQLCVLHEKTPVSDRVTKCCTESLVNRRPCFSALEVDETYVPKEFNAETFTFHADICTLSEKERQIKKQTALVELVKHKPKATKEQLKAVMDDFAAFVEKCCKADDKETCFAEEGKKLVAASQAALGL

SK-MEL-28 = assay: Cytotoxicity against human SK-MEL-28 cells after 48 hrs by SRB assay; assay type: functional; conditions: SK-MEL-28, 48 h
[3] = Antiproliferative activity against human HCC2998 cells at 10'5 M; assay type: functional, HCC 2998
[4] = Cytotoxicity against human SNB75 cells after 48 hrs by SRB assay; assay type: functional; conditions: SNB-75, 48 h
MCF7 = assay: Cytotoxicity against human MCF7 cells after 48 hrs by SRB assay; assay type: functional; conditions: MCF7, 48 h
NCI-H460 = assay: Cytotoxicity against human NCI-H460 cells after 48 hrs by SRB assay; assay type: functional; conditions: NCI-H460, 48 h
[5] = Cytotoxicity against human HL-60(TB) cells after 48 hrs by SRB assay; assay type: functional; conditions: HL-60, 48 h
[6] = Antiproliferative activity against human OVCAR4 cells at 10'5 M; assay type: functional, OVCAR-4
[7] = Cytotoxicity against human IGROV1 cells after 48 hrs by SRB assay; assay type: functional; conditions: IGROV-1, 48 h
Albumin [8] = biological target: T1, Albumin; assay: Binding affinity to human serum albumin at 0.25 to 2 uM at 303 K by fluorescence microscopic analysis in the presence of digitoxin; assay type: ADME; conditions: isolated protein
Albumin [9] = biological target: T1, Albumin; assay: Binding affinity to human serum albumin at 0.25 to 2 uM at 308 K by fluorescence microscopic analysis; assay type: ADME; conditions: isolated protein
U-251 = assay: Cytotoxicity against human U251 cells assessed as cell growth at 10^-5 M after 48 hrs by SRB assay; assay type: functional; conditions: U-251, 48 h, read-out: Activity
[10] = Cytotoxicity against human HCT116 cells assessed as cell growth at 10^-5 M after 48 hrs by SRB assay; assay type: functional; conditions: HCT-116, 48 h, read-out: Activity
[11] = Antiproliferative activity against human PC3 cells at 10'5 M; assay type: functional, PC-3
Albumin [12] = biological target: T1, Albumin; assay: Binding affinity to human serum albumin assessed as fluorescence quenching in steady state at 0.25 uM at 303 K by fluorescence microscopic analysis; assay type: ADME; conditions: isolated protein
MDA-MB-468 [13] = assay: Cytotoxicity against human MDA-MB-468 cells assessed as cell growth at 10^-5 M after 48 hrs by SRB assay; assay type: functional; conditions: MDA-MB-468, 48 h, read-out: Activity
[14] = Antiproliferative activity against human DU145 cells at 10'5 M; assay type: functional, DU-145
NCI-H23 [15] = assay: Cytotoxicity against human NCI-H23 cells assessed as cell growth at 10^-5 M after 48 hrs by SRB assay; assay type: functional; conditions: NCI-H23, 48 h, read-out: Activity
[16] = Cytotoxicity against human LOXIMVI cells assessed as cell growth at 10^-5 M after 48 hrs by SRB assay; assay type: functional; conditions: LOX IMVI, read-out: Activity
[17] = Cytotoxicity against human OVCAR4 cells after 48 hrs by SRB assay; assay type: functional; conditions: OVCAR-4, 48 h
Albumin [18] = biological target: T1, Albumin; assay: Binding affinity to human serum albumin at 0.25 to 2 uM at 288 K by fluorescence microscopic analysis; assay type: ADME; conditions: isolated protein
NCI-H23 [19] = assay: Cytotoxicity against human NCI-H23 cells after 48 hrs by SRB assay; assay type: functional; conditions: NCI-H23, 48 h
786-0 = assay: Cytotoxicity against human 786-0 cells after 48 hrs by SRB assay; assay type: functional; conditions: 786-0, 48 h
MDA-MB-435 = assay: Cytotoxicity against human MDA-MB-435 cells assessed as cell growth at 10^-5 M after 48 hrs by SRB assay; assay type: functional; conditions: MDA-MB-435, 48 h, read-out: Activity
[20] = Cytotoxicity against human SKOV3 cells assessed as cell growth at 10^-5 M after 48 hrs by SRB assay; assay type: functional; conditions: SK-OV-3, 48 h, read-out: Activity
[21] = Cytotoxicity against human LOXIMVI cells after 48 hrs by SRB assay; assay type: functional; conditions: LOX IMVI
Albumin [22] = biological target: T1, Albumin; assay: Binding affinity to human serum albumin at 0.25 uM at 303 K by fluorescence microscopic analysis in the presence of Mn2+; assay type: ADME; conditions: isolated protein
[23] = Cytotoxicity against human OVCAR8 cells after 48 hrs by SRB assay; assay type: functional; conditions: OVCAR-8, 48 h
[24] = Cytotoxicity against human SKOV3 cells after 48 hrs by SRB assay; assay type: functional; conditions: SK-OV-3, 48 h
[25] = Cytotoxicity against human SF268 cells after 48 hrs by SRB assay; assay type: functional; conditions: SF-268, 48 h
MDA-MB-468 [26] = assay: Cytotoxicity against human MDA-MB-468 cells after 48 hrs by SRB assay; assay type: functional; conditions: MDA-MB-468, 48 h
[27] = Cytotoxicity against human UACC257 cells assessed as cell growth at 10^-5 M after 48 hrs by SRB assay; assay type: functional; conditions: UACC-257, 48 h, read-out: Activity
K562 = assay: Antiproliferative activity against human K562 cells at 10'5 M; assay type: functional
[28] = Cytotoxicity against human OVCAR3 cells assessed as cell growth at 10^-5 M after 48 hrs by SRB assay; assay type: functional; conditions: OVCAR-3, 48 h, read-out: Activity
NCI-H322M = assay: Cytotoxicity against human NCI-H322M cells assessed as cell growth at 10^-5 M after 48 hrs by SRB assay; assay type: functional; conditions: read-out: Activity
[29] = Antiproliferative activity against human NCI-ADR-RES cells at 10'5 M; assay type: functional
Albumin [30] = biological target: T1, Albumin; assay: Binding affinity to human serum albumin assessed Stern-Volmer quenching constant at 0.25 to 2 uM at 298 K by fluorescence microscopic analysis; assay type: ADME; conditions: isolated protein
[31] = read-out: LC50 (the source's name)

## O=C(/C=C/c1ccccc1)n1c(-c2ccc(Cl)cc2)nc2ccccc21
A498
  growth at 10 µM: -14.6%
[1]
  growth at 10 µM: -55.1%
Malme-3M
  GI50: 0.59 µM
  TGI: 1.91 µM
Malme-3M; [31]
  CC50: 4.77 µM
Albumin [2]
  K: 4.21 ×10³ /mol
SK-MEL-28
  GI50: 2.1 µM
  TGI: 4.35 µM
SK-MEL-28; [31]
  CC50: 9.02 µM
[3]
  growth inhibition (GI): 94.92%
[4]
  GI50: 3.13 µM
  TGI: 12.8 µM
[4]; [31]
  CC50: 40.5 µM
MCF7
  GI50: 1.01 µM
  TGI: 9.92 µM
MCF7; [31]
  CC50: 55.5 µM
NCI-H460
  GI50: 1.96 µM
  TGI: 6.52 µM
NCI-H460; [31]
  CC50: 25.5 µM
[5]
  GI50: 1.4 µM
  TGI: 4.88 µM
[5]; [31]
  CC50: > 100 µM
[6]
  growth inhibition (GI): 69.96%
[7]
  GI50: 1.27 µM
  TGI: 2.88 µM
[7]; [31]
  CC50: 6.53 µM
Albumin [8]
  K: 5.73 ×10³ /M
Albumin [9]
  K: 6.27 ×10³ /mol
U-251
  growth at 10 µM: -0.39%
[10]
  growth at 10 µM: -71.5%
[11]
  growth inhibition (GI): 93.91%
Albumin [12]
  K: 5.68 ×10³ /mol
MDA-MB-468 [13]
  growth at 10 µM: -6.61%
[14]
  growth inhibition (GI): 88.87%
NCI-H23 [15]
  growth at 10 µM: -24.5%
[16]
  growth at 10 µM: -82.9%
[17]
  GI50: 1.11 µM
  TGI: 2.64 µM
[17]; [31]
  CC50: 6.29 µM
Albumin [18]
  K: 2.24 ×10⁵ /mol
NCI-H23 [19]
  GI50: 2.17 µM
  TGI: 6 µM
NCI-H23 [19]; [31]
  CC50: > 100 µM
786-0
  GI50: 2.43 µM
  TGI: 5.71 µM
786-0; [31]
  CC50: 18 µM
MDA-MB-435
  growth at 10 µM: -44.3%
[20]
  growth at 10 µM: 23.9%
[21]
  GI50: 1.6 µM
  TGI: 3.22 µM
[21]; [31]
  CC50: 6.5 µM
Albumin [22]
  K: 3.85 ×10³ /mol
[23]
  GI50: 1.74 µM
  TGI: 4.21 µM
[23]; [31]
  CC50: 10.5 µM
[24]
  GI50: 1.49 µM
  TGI: 61.3 µM
[24]; [31]
  CC50: > 100 µM
[25]
  GI50: 1.45 µM
  TGI: 5.03 µM
[25]; [31]
  CC50: 27.9 µM
MDA-MB-468 [26]
  GI50: 1.52 µM
  TGI: 4.32 µM
MDA-MB-468 [26]; [31]
  CC50: 23.7 µM
[27]
  growth at 10 µM: -64.4%
K562
  growth inhibition (GI): 60.22%
[28]
  growth at 10 µM: -57.2%
NCI-H322M
  growth at 10 µM: 45%
[29]
  growth inhibition (GI): 89.22%
Albumin [30]
  KSV: 1.37 ×10⁵ L/mol

Reference: ChEMBL document CHEMBL3769371, “1-[(2E)-3-Phenylprop-2-enoyl]-1H-benzimidazoles as anticancer agents: synthesis, crystal structure analysis and binding studies of the most potent anticancer molecule with serum albumin” (Medchemcomm, 2015)
